As a reminder, the viability is a read-out of living cells in per cent, often relative to untreated cells.

Consider 4 compounds from article PMC10813298, “Evidence of Guanidines Potential against Leishmania (Viannia) braziliensis: Exploring In Vitro Effectiveness, Toxicities and of Innate Immunity Response Effects” (Biomolecules, 2023).

A short description of data set [1]: Cell toxicity, MTT-based EZ4U assay, CaCo-2. As to conditions: human, CaCo-2 cells (colon carcinoma); for viability at 72 h, 2.34 µmol/L: CACO2, 2.34 µmol/L; for viability at 72 h, 4.6875 µmol/L: CACO2, 4.6875 µmol/L; for viability at 72 h, 9.375 µmol/L: CACO2, 9.375 µmol/L; for viability at 72 h, 18.75 µmol/L: CACO2, 18.75 µmol/L; for viability at 72 h, 37.5 µmol/L: CACO2, 37.5 µmol/L; for viability at 72 h, 75 µmol/L: CACO2, 75 µmol/L; for viability at 72 h, 150 µmol/L: CACO2, 150 µmol/L; for viability at 72 h, 300 µmol/L: CACO2, 300 µmol/L; for viability at 72 h, 600 µmol/L: CACO2, 600 µmol/L. The procedure: (§1) In this study, we utilized the RAW 264.7 macrophages line (obtained from ATCC: code TIB-71™),human embryonic kidney cell line HEK-293 (obtained from ATCC: code CRL-1573™)and two human cancer cell cultures: the colon carcinoma cell line CaCo-2 and the adenocarcinomic human alveolar basal epithelial cell A549 (also obtained from ATCC: codesHTB-37™ and CCL-185™).These cell lines were cultured in Dulbecco’s modified Eagle medium (DMEM) from Gibco by Life Technologies (LifeTech Austria, Vienna, Austria). The growth medium was supplemented with 5% fetal bovine serum (FBS) from Gibco by Life Technologies and 1% penicillin-streptomycin obtained from Sigma-Aldrich (Vienna, Austria). The cells were maintained at 37 °C with 5% CO2 in a humidified incubator, and regular checks for mycoplasma contamination were carried out.
For experimental purposes, the cells were seeded into 96-well plates at a density of 2 × 10^4 cells/mL, with each well containing 100 µL of the cell suspension. The cells were allowed to adhere for 24 h. Subsequently, they were exposed to 100 µL of the test compounds, which were diluted in DMEM, with concentrations ranging from 2 to 600 µmol/L. The stock solutions of these compounds were prepared in water with 10% (v/v) dimethyl sulfoxide (DMSO) and stored at 4 °C.
(§2) To assess cell viability after 72 h of exposure to the compounds, we employed a 3-(4,5-dimethylthiazol-2-yl)-2,5-diphenyltetrazolium bromide (MTT)-based vitality assay kit (EZ4U, Biomedica, Vienna, Austria). Briefly, we added 20 µL of the EZ4U assay solution to each well and incubated the plates in the dark for 2 h. Subsequently, we measured the absorbance using a microplate reader at 450 nm, with 620 nm as a reference to reduce unspecific background values. For reliability, all experiments were conducted three times with triplicate samples.
For orientation: Formazan colour is commonly taken as a measure of viable cells.

Data set [2] has as its system HEK-293. The data set is described as follows: Cell toxicity, MTT-based EZ4U assay, HEK-293. On the set-up: species or system human. The settings on record: HEK-293, 1.56–500 µmol/L. As to the method:
as §1
(§3) For experimental purposes, the cells were seeded into 96-well plates at a density of 2 × 10^4 cells/mL, with each well containing 100 µL of the cell suspension. The cells were allowed to adhere for 24 h. […] The stock solutions of these compounds were prepared in water with 10% (v/v) dimethyl sulfoxide (DMSO) and stored at 4 °C.
as §2

Data set [3] is described as follows: Cell toxicity, MTT-based EZ4U assay, HEK-293. The arrangement: species or system human. As to conditions: human, HEK-293 cells (embryonic kidney), HEK, 72 h. The procedure:
as §1, §3, §2

For data set [4], the system named is TNF-α. The data set is described as follows: Cytokine production in supernatant of infected macrophages (ELISA), TNF-α. In kind it is cell-based, murine. As to conditions: supernatant of RAW 264.7 macrophages infected with L. (V.) braziliensis. An excerpt:
To assess the production of cytokines TNF-α and IL-12 (associated with Th1 response), as well as IL-10 and IL-6 (associated with Th2 response), in the supernatants of the macrophage infection assay, the sandwich enzyme-linked immunosorbent assay (ELISA) method was employed, following the manufacturer’s instructions (eBioscience^TM, San Diego, CA, USA). Initially, capture antibodies specific to TNF-α, IL-6, IL-10, and IL-12 were sensitized in ELISA plates (NUNC-ImmunoTM, Sigma-Aldrich, St. Louis, MO, USA). The plates were incubated at 4 °C for 18 h. After the incubation period, all wells were washed with a solution containing 0.05% PBS and Tween 20 (Sigma-Aldrich, St. Louis, MO, USA). A blocking solution containing 10% FBS in PBS was added to the wells and incubated for 1 h. Subsequently, the wells were washed again. The supernatant obtained from the macrophage infection assay was added to the respective wells. Known concentrations of recombinant cytokines (TNF-α, IL-10, IL-6, and IL-12) were also added to the plate in parallel, covering a range from high to low concentrations. The plates were maintained at 4 °C for another 18 h. Following this incubation, additional washes were performed. The detector complex, consisting of biotinylated detection antibodies, was added to the wells. The plates were incubated for an additional hour. After another round of washing, the enzymatic complex avidin-peroxidase was added to each well. The plates were incubated for 30 min at room temperature. The reaction was initiated by adding a substrate solution containing tetramethylbenzidine and hydrogen peroxide. This reaction was allowed to proceed for 15 min. To stop the reaction, 1N sulfuric acid was added to each well. The absorbance was measured in a plate reader at a wavelength of 450 nm. The concentration of cytokines (TNF-α, IL-10, IL-6, and IL-12) in the supernatants was determined by interpolation from the standard curve.
Background: In an ELISA, binding on a coated surface is turned into a signal by an enzyme label.

As to `O=C(/N=C(/NCc1ccccc1)Nc1ccc([N+](=O)[O-])cc1)c1ccccc1` [LQOF-G1, (Z)-N-benzoyl-N-benzyl-N-(4-nitrophenyl)guanidine], in data set [1], the viability at 72 h, 2.34 µmol/L was 106 ± 8%; the viability at 72 h, 4.6875 µmol/L came out at 109 ± 5%; the viability at 72 h, 9.375 µmol/L turned out to be 109 ± 7%; the viability at 72 h, 18.75 µmol/L stood at 109 ± 10%. In data set [1], the viability at 72 h, 37.5 µmol/L is 97 ± 13%; the viability at 72 h, 75 µmol/L stood at 99 ± 7%; the viability at 72 h, 150 µmol/L stood at 107 ± 3%; the viability at 72 h, 300 µmol/L amounted to 103 ± 10%. Further, the viability at 72 h, 600 µmol/L in data set [1] was found to be 119 ± 5%. Also, the “toxic effects on cell viability” value in data set [2] is given as “No toxic effects”. In data set [3], the viability at 72 h, 2.34 µmol/L is 99 ± 10%; the viability at 72 h, 4.6875 µmol/L came out at 104 ± 11%; the viability at 72 h, 9.375 µmol/L is 125 ± 8.1%; the viability at 72 h, 18.75 µmol/L worked out at 125 ± 9.4%. For the same compound, in data set [3], the viability at 72 h, 37.5 µmol/L amounted to 100 ± 11%; the viability at 72 h, 75 µmol/L stood at 115 ± 7%; the viability at 72 h, 150 µmol/L turned out to be 111 ± 5%; the viability at 72 h, 300 µmol/L came out at 117 ± 6%. In data set [3], the viability at 72 h, 600 µmol/L was found to be 115 ± 10%. Moreover, the TNF-α level result in data set [4] was “increased”.
As for `O=C(/N=C(/NCc1ccccc1)Nc1ccc(Br)cc1)c1ccccc1` [LQOF-G2, (Z)-N-benzoyl-N-benzyl-N-(4-bromophenyl)guanidine], in data set [1], the viability at 72 h, 2.34 µmol/L amounted to 106 ± 3.6%; the viability at 72 h, 4.6875 µmol/L amounted to 109 ± 13.6%; the viability at 72 h, 9.375 µmol/L is 109 ± 14.7%; the viability at 72 h, 18.75 µmol/L came to 103 ± 5.7%. In data set [1], the viability at 72 h, 37.5 µmol/L came to 97 ± 4.9%; the viability at 72 h, 75 µmol/L is 99 ± 6.4%; the viability at 72 h, 150 µmol/L was 107 ± 5.3%; the viability at 72 h, 300 µmol/L was found to be 103 ± 6.6%. In addition, the viability at 72 h, 600 µmol/L in data set [1] was 119 ± 8.8%. In addition, in data set [2], the “toxic effects on cell viability” value is reported as “No toxic effects”. In addition, in data set [3], the viability at 72 h, 2.34 µmol/L was 104 ± 2.9%; the viability at 72 h, 4.6875 µmol/L was determined as 109 ± 9.6%; the viability at 72 h, 9.375 µmol/L is 103 ± 13.5%; the viability at 72 h, 18.75 µmol/L stood at 108 ± 8.6%. For the same compound, in data set [3], the viability at 72 h, 37.5 µmol/L is 96 ± 2.9%; the viability at 72 h, 75 µmol/L was determined as 99 ± 8.5%; the viability at 72 h, 150 µmol/L worked out at 145 ± 3.3%; the viability at 72 h, 300 µmol/L stood at 123 ± 7.1%. Also, the viability at 72 h, 600 µmol/L in data set [3] was 133 ± 8.4%. In addition, in data set [4], the TNF-α level result is given as “increased”.
Consider `CC(C)(C)c1ccc(N/C(=N\C(=O)c2ccccc2)NCc2ccccc2)cc1` [LQOF-G6, (Z)-N-benzoyl-N-benzyl-N-(4-tert-butylphenyl)guanidine], for which, in data set [4], the TNF-α level entry is listed as “increased”.
For `O=C(/N=C(/NCc1ccc(Cl)cc1Cl)Nc1ccc(Br)cc1)c1ccccc1` [LQOF-G32, (Z)-N-benzoyl-N-(2,4-di-chlorobenzyl)-N-(4-bromophenyl)guanidine], in data set [1], the viability at 72 h, 2.34 µmol/L worked out at 138 ± 8.4%; the viability at 72 h, 4.6875 µmol/L is 123 ± 11.4%; the viability at 72 h, 9.375 µmol/L was determined as 117 ± 7.3%; the viability at 72 h, 18.75 µmol/L is 116 ± 9.7%. For the same compound, in data set [1], the viability at 72 h, 37.5 µmol/L is 79 ± 6.4%; the viability at 72 h, 75 µmol/L was determined as 53 ± 14.8%; the viability at 72 h, 150 µmol/L was 45 ± 10.4%; the viability at 72 h, 300 µmol/L is 45 ± 15.9%. The viability at 72 h, 600 µmol/L in data set [1] was 66 ± 12.3%. In addition, the “toxic effects on cell viability” value in data set [2] is recorded as “No toxic effects”. In data set [3], the viability at 72 h, 2.34 µmol/L was 93 ± 5.3%; the viability at 72 h, 4.6875 µmol/L was 95 ± 12.7%; the viability at 72 h, 9.375 µmol/L came to 89 ± 7.9%; the viability at 72 h, 18.75 µmol/L turned out to be 94 ± 8.9%. In data set [3], the viability at 72 h, 37.5 µmol/L is 91 ± 6.9%; the viability at 72 h, 75 µmol/L turned out to be 91 ± 13.9%; the viability at 72 h, 150 µmol/L amounted to 94 ± 12.7%; the viability at 72 h, 300 µmol/L came to 118 ± 13.9%. Moreover, the viability at 72 h, 600 µmol/L in data set [3] amounted to 185 ± 10.1%.
